Measured values: patent US11285135B2 (AMGEN INC., priority 2016, dated 2022)
Where two headings read alike, the source gives them in different places.

Columns and labels:
[1] = target: GDP-bound protein (aa 1-169), containing both G12C and C118A amino acid substitutions (Homo sapiens, UniProt P01116, C118A/G12C); assay: Coupled Nucleotide Exchange Assay (SOS-mediated nucleotide exchange, AlphaScreen); type: biochemical; conditions: 2 hours compound pre-incubation
How it was run: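 His-tagged GDP-bound […] (aa 1-169, G12C/C118A) pre-incubated 2 h with compound titration in 25 mM HEPES pH 7.4, 10 mM MgCl2, 0.01% Triton X-100.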

[2] = test system: Phosphorylation of ERK½ in A549 cells; assay: Phospho-ERK½ MSD Assay in A549 cells; type: cell-based; conditions: 4 hours compound treatment, 10 ng/mL EGF for 10 min, read-out: p-ERK IC50 (A549)
How it was run: (§1)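 MIA PaCa-2 or A549 cells (25,000/well, RPMI with 10% FBS) exposed to compound titration for 4 h at 37 °C, then stimulated with 10 ng/mL EGF for 10 min and lysed in RIPA. Phospho-ERK1/2 quantified by MSD whole-cell lysate immunoassay; IC50 from 4-parameter logistic fit.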

[3] = test system: Phosphorylation of ERK½ in MIA PaCa-2 cells; assay: Phospho-ERK½ MSD Assay in MIA PaCa-2 cells; type: cell-based; conditions: 4 hours compound treatment, 10 ng/mL EGF for 10 min, read-out: p-ERK IC50 (MIA PaCa-2)
How it was run: as §1

[4] = Homo sapiens, MIA PaCa-2, MIA PaCa-2 cells

Sequence of GDP-bound protein (aa 1-169), containing both G12C and C118A amino acid substitutions (P01116 1-169 isoform P01116-2 G12C/C118A): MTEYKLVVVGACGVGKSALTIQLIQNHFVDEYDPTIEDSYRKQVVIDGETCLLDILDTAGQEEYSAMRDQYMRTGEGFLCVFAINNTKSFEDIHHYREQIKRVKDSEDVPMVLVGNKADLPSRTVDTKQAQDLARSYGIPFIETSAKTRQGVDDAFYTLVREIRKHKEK

| Compound | Coupled exchange IC50 [1] [µM] | IC50 ([2]; Homo sapiens, A549, A549 cells) [µM] | IC50 [3, 4] [µM] | IC50 ([2]; A549 cells) [µM] | IC50 ([3]; MIA PaCa-2 cells) [µM] |
| --- | --- | --- | --- | --- | --- |
| C=CC(=O)N1CCN(c2nc(=O)n(-c3ccccc3C(C)C)c3cc(-c4cc(N)ccc4Cl)c(Cl)cc23)[C@@H](C)C1 [Example 9-3, 7-(5-amino-2-chlorophenyl)-6-chloro-4-((2S)-2-methyl-4-(2-propenoyl)-1-piperazinyl)-1-(2-(2-propanyl)phenyl)-2(1H)-quinazolinone] | 0.113 | 66.1 | 0.035 | – | – |
| C=CC(=O)N1CCN(c2snc3c(F)c(-c4cc(O)cc5ccccc45)c(Cl)cc23)CC1 (single isomer, unassigned) [Example 3-1-1, 1-(4-(5-chloro-7-fluoro-6-(3-hydroxy-1-naphthalenyl)-2,1-benzothiazol-3-yl)-1-piperazinyl)-2-propen-1-one] | 3.00 | – | – | > 100 | > 100 |
| C=CC(=O)N1CCN(c2nnc(-c3ccccc3C3CC3)c3cc(-c4c(O)cccc4F)c(Cl)cc23)CC1 [Example 10-10, 1-(4-(7-chloro-4-(2-cyclopropylphenyl)-6-(2-fluoro-6-hydroxyphenyl)-1-phthalazinyl)-1-piperazinyl)-2-propen-1-one] | 0.359 | > 100 | 6.85 | – | – |
| C=CC(=O)N1CCN(c2snc3c(F)c(-c4c[nH]c5ccccc45)c(Cl)cc23)CC1 [Example 1-2, 1-(4-(5-chloro-7-fluoro-6-(1H-indol-3-yl)-2,1-benzothiazol-3-yl)-1-piperazinyl)-2-propen-1-one] | 2.38 | > 100 | 6.08 | – | – |
| C=CC(=O)N1CCN(c2nc(=O)n(-c3ccccc3C(C)C)c3cc(-c4c(O)cccc4F)c(Cl)cc23)[C@@H](C)C1 [Example 8-3, 6-chloro-7-(2-fluoro-6-hydroxyphenyl)-4-((2S)-2-methyl-4-(2-propenoyl)-1-piperazinyl)-1-(2-(2-propartyl)phenyl)-2(1H)-quinazolinone] | 0.783 | > 100 | 0.061 | – | – |
| C=CC(=O)N1CCN(c2nnc(Nc3ccccc3)c3cc(-c4c(O)cccc4F)c(Cl)cc23)CC1 [Example 13, 1-(4-(4-Anilino-7-chloro-6-(2-fluoro-6-hydroxyphenyl)-1-phthalazinyl)-1-piperazinyl)-2-propen-1-one] | 5.20 | > 100 | > 100 | – | – |
| C=CC(=O)N1CCN(c2nnc(-c3ccccc3CC)c3cc(-c4c(O)cccc4F)c(Cl)cc23)CC1 [Example 10-5, 1-(4-(7-chloro-4-(2-ethylphenyl)-6-(2-fluoro-6-hydroxyphenyl)-1-phthalazinyl)-1-piperazinyl)-2-propen-1-one] | 0.297 | > 100 | 3.41 | – | – |
| C=CC(=O)N1CCN(c2nnc(-c3c(C)ccc4[nH]ncc34)c3cc(-c4c(O)cccc4F)c(Cl)cc23)CC1 [Example 10-12, 1-(4-(7-chloro-6-(2-fluoro-6-hydroxyphenyl)-4-(5-methyl-1H-indazol-4-yl)-1-phthalazinyl)-1-piperazinyl)-2-propen-1-one] | 0.912 | > 100 | 72.6 | – | – |
| C=CC(=O)N1CCN(c2nnc(-c3ccccc3)c3cc(-c4c(O)cccc4F)c(Cl)cc23)CC1 [Example 30, 2-(1-(4-Acryloyl-1-piperazinyl)-7-chloro-4-phenyl-6-phthalazinyl)-3-fluorophenol] | 7.51 | > 100 | 58 | – | – |
| C=CC(=O)N1CCN(c2nc(=O)n(-c3ccccc3C(C)C)c3cc(-c4cc(O)cc(Cl)c4Cl)c(Cl)cc23)[C@@H](C)C1 [Example 9-1, 6-Chloro-7-(2,3-dichloro-5-hydroxyphenyl)-4-((2S)-2-methyl-4-(2-propenoyl)-1-piperazinyl)-1-(2-(2-propanyl)phenyl)-2(1H)-quinazolinone] | 0.155 | 57.4 | 0.052 | – | – |
| C=CC(=O)N1CCN(c2snc3c(F)c(-c4cc(O)c(F)cc4F)c(Cl)cc23)CC1 [Example 3-10, 1-(4-(5-chloro-6-(2,4-difluoro-5-hydroxyphenyl)-7-fluoro-2,1-benzothiazol-3-yl)-1-piperazinyl)-2-propen-1-one] | 4.74 | 11.1 | 66.4 | – | – |
| C=CC(=O)N1CCN(c2snc3c(F)c(-c4cc(O)cc5cnn(C)c45)c(Cl)cc23)CC1 [Example 19-2, 1-(4-(5-chloro-7-fluoro-6-(5-hydroxy-1-methyl-1H-indazol-7-yl)-2,1-benzothiazol-3-yl)-1-piperazinyl)-2-propen-1-one] | 1.62 | 3.7 | 4.69 | – | – |
| C=CC(=O)N1CCN(c2nnc(-c3ccccc3C(C)C)c3cc(-c4c(O)cccc4F)c(Cl)cc23)CC1 [Example 10-4, 1-(4-(7-chloro-6-(2-fluoro-6-hydroxyphenyl)-4-(2-(2-propanyl)phenyl)-1-phthalazinyl)-1-piperazinyl)-2-propen-1-one] | 0.235 | > 100 | 3.47 | – | – |
| C=CC(=O)N1CCN(c2snc3c(F)c(-c4cccc5ccccc45)c(Cl)cc23)CC1 [Example 3-23, 1-(4-(5-chloro-7-fluoro-6-(naphthalen-1-yl)benzo[c]isothiazol-3-yl)piperazin-1-yl)prop-2-en-1-one] | 4.65 | > 100 | 13.6 | – | – |
| C=CC(=O)N1CCN(c2snc3c(F)c(-c4cc(O)cc5ccccc45)c(Cl)cc23)[C@H](CC)C1 (racemic) [Example 1-8] | 0.894 | > 100 | 6.07 | – | – |
| C=CC(=O)N1CCN(c2snc3c(F)c(-c4cc(O)cc5ccccc45)c(Cl)cc23)[C@@H](C(F)F)C1 (racemic) [Example 7-1] | 0.299 | > 100 | 0.43 | – | – |
| C=CC(=O)N1CCN(c2snc3c(F)c(-c4cc(O)ccc4Br)c(Cl)cc23)CC1 [Example 1-1, 1-(4-(6-(2-bromo-5-hydroxyphenyl)-5-chloro-7-fluorobenzo[c]isothiazol-3-yl)piperazin-1-yl)prop-2-en-1-one] | 0.355 | > 33.3 | 2.55 | – | – |
| C=CC(=O)N1CCN(c2snc3c(F)c(-c4c(C5CC5)ccc5[nH]ncc45)c(Cl)cc23)CC1 [Example 23, 1-(4-(5-chloro-6-(5-cyclopropyl-1H-indazol-4-yl)-7-fluoro-2,1-benzothiazol-3-yl)-1-piperazinyl)-2-propen-1-one] | 3.29 | > 33.3 | 3.21 | – | – |
| C=CC(=O)N1CCN(c2nc(=O)n(-c3ccncc3C3CC3)c3cc(-c4c(C)ccc5[nH]ncc45)c(Cl)cc23)[C@@H](C)C1 [Example 9-9, 6-chloro-1-(3-cyclopropyl-4-pyridinyl)-7-(5-methyl-1H-indazol-4-yl)-4-((2S)-2-methyl-4-(2-propenoyl)-1-piperazinyl)-2(1H)-quinazolinone] | 0.147 | 65.6 | 0.136 | – | – |
| C=CC(=O)N1CCN(c2snc3c(F)c(-c4cc(O)cc5ccccc45)c(Cl)cc23)C(C(=O)O)C1 (stereo not drawn) [Example 22, 1-(5-chloro-7-fluoro-6-(3-hydroxy-1-naphthalenyl)-2,1-benzothiazol-3-yl)-4-(2-propenoyl)-2-piperazinecarboxylic acid] | 0.927 | > 100 | 56.1 | – | – |
| C=CC(=O)N1CCN(c2snc3c(F)c(-c4cccc5cccnc45)c(Cl)cc23)CC1 [Example 3-24, 1-(4-(5-chloro-7-fluoro-6-(quinolin-8-yl)benzo[c]isothiazol-3-yl)piperazin-1-yl)prop-2-en-1-one] | 9.07 | > 100 | 23.7 | – | – |
| C=CC(=O)N1CCN(c2snc3c(F)c(-c4c(O)cccc4F)c(Cl)cc23)CC1 [Example 3-6, 1-(4-(5-chloro-7-fluoro-6-(2-fluoro-6-hydroxyphenyl)-2,1-benzothiazol-3-yl)-1-piperazinyl)-2-propen-1-one] | 1.05 | > 100 | 11.8 | – | – |
| C=CC(=O)N1CCN(c2snc3c(F)c(-c4cc(O)cc5ccccc45)c(Cl)cc23)[C@@H](C)C1 (single isomer, unassigned) [Example 1-19-1] | 0.115 | > 100 | 0.368 | – | – |
| C=CC(=O)N1CCN(c2snc3c(F)c(-c4cc(N)ccc4C)c(Cl)cc23)CC1 [Example 3-12, 1-(4-(6-(5-amino-2-methylphenyl)-5-chloro-7-fluoro-2,1-benzothiazol-3-yl)-1-piperazinyl)-2-propen-1-one] | 2.56 | > 100 | 7.66 | – | – |
| C=CC(=O)N1C[C@@H]2[C@H]1CCN2c1snc2c(F)c(-c3cc(O)cc4ccccc34)c(Cl)cc12 (racemic) [Example 5-8, 1-(cis-2-(5-Chloro-7-fluoro-6-(3-hydroxy-1-naphthalenyl)-2,1-benzothiazol-3-yl)-2,6-diazabicyclo[3.2.0]heptan-6-yl)-2-propen-1-one] | 0.433 | > 33.3 | 1.2 | – | – |
